Source: paper PMC9486805, “Identification of a Phage Display-Derived Peptide Interacting with the N-Terminal Region of Factor VII Activating Protease (FSAP) Enables Characterization of Zymogen Activation” (ACS Chemical Biology, 2022)

Key:
[1] = Substrate turnover in FSAP-depleted plasma; type: biochemical, human; settings: FSAP-depleted citrate plasma 1:12; 25 μM (Fig 6A)
Protocol: Figure 6 Pro-FSAP activation and clotting in plasma by NNKC9/41: (A) citrate plasma (1:12 dilution) from donors with WT/WT, WT/MI, and MI/MI genotypes and WT-FSAP-deficient plasma (FSAP-DP) were compared. Substrate turnover was monitored after addition of NNKC9/41 or the Ser–Ser linear peptide (25 μM each). Results are shown as mean + range of duplicate wells. (B) Pooled prothrombin-deficient citrated plasma (1:5 dilution) was recalcified with 10 mM CaCl2 and incubated with NNKC9/41 or scrambled control peptide (0–25 μM each) for 60 min at 37 °C in the presence or absence of the FSAP-inhibitory MA-FSAP-38C7 (5 μg/mL). Initiation of clotting was achieved by adding the tissue factor/phospholipid and prothrombin complex concentrate. Clotting time was measured as diluted prothrombin time (dPT) in seconds. Data are the mean of three independent experiments. The relative dPT in % of the untreated control is presented as mean ± standard error (SE) (*p <0.05, two-way analysis of variance (ANOVA) and Bonferroni post-test).
Human citrate plasma (0.38% w/v) or hirudin plasma (25 μg/mL Lepirudin) was obtained from five healthy donors. […] Hydrolysis of the fluorogenic substrates was measured using a Synergy HI plate reader with excitation at 320 nm and emission at 460 nm at 37 °C for 60 min. The maximal velocity was calculated from the linear part of the progress curve. […]

pro-FSAP in human plasma = target: T1, pro-FSAP in human plasma (Homo sapiens, UniProt Q14520); assay: Activation of endogenous pro-FSAP in plasma, fluorogenic substrate turnover; type: biochemical
T1 construct: from tissue; host or cells: human hirudin or citrate plasma from healthy donors, diluted 1:12
T1 sequence (Q14520 24-560): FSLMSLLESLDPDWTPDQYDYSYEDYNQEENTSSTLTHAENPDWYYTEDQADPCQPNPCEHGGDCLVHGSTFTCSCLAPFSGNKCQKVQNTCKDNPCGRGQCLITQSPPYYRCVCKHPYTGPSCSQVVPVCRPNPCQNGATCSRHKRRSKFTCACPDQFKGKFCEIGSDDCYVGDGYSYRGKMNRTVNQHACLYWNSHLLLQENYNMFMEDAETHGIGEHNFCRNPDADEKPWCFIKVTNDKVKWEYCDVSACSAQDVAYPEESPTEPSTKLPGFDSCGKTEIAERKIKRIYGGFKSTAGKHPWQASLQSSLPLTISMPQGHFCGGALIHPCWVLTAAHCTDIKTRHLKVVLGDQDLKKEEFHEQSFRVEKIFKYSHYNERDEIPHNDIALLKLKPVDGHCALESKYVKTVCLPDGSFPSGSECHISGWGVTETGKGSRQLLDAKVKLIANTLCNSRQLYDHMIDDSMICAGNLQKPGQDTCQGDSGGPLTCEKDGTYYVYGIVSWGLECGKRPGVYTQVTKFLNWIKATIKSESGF
Protocol: Human citrate plasma (0.38% w/v) or hirudin plasma (25 μg/mL Lepirudin) was obtained from five healthy donors. Plasma was diluted at 1:12 and mixed with various test substances that potentially activate or inhibit pro-FSAP. Ac–Ala–Lys–Nle–Arg–AMC (amino–methyl–coumarin) was used as a sensitive and specific substrate for FSAP.[35] Hydrolysis of the fluorogenic substrates was measured using a Synergy HI plate reader with excitation at 320 nm and emission at 460 nm at 37 °C for 60 min. The maximal velocity was calculated from the linear part of the progress curve. In limited experiments, the second-generation fluorogenic FSAP substrate (Ac–Pro–DTyr–Lys–Arg–AMC)[34] was used. Pro-uPA activation, formation of FSAP−α2-antiplasmin, and western blotting with anti-FSAP antibodies were also used to monitor pro-FSAP activation.

[2] = target: T2, pro-FSAP purified from human plasma (Homo sapiens, UniProt Q14520); assay: Pro-FSAP activation assay, purified pro-FSAP, chromogenic substrate S-2288; type: biochemical
T2 construct: Pro-FSAP was isolated from human plasma as described before; from tissue; host or cells: human plasma
T2 sequence (Q14520 24-560): as above
Protocol: Figure 1 Isolation of pro-FSAP binding peptides and their activity: (A) strategy to isolate high-affinity phages from the NNKC9 and NNK11 libraries that bind to pro-FSAP. To select for strong binders, an excess of free pro-FSAP protein was used for competitive elution of low-affinity binders. High-affinity binders retained on the beads were analyzed further. The sequences of major positive clones identified through an ELISA-based binding assay from the NNKC9 and NNK11 libraries are shown. (B) NNK11/189 and scrambled controls (0–50 μM) and histones (0–50 μg/mL) were added to purified pro-FSAP (1.0 μg/mL) and the turnover of the chromogenic substrate S-2288 (200 μM) was measured. (C) NNKC9/41 was compared to a peptide that was synthetically monocyclized (Cys–Cys cyclic), a peptide with Ser residues instead of Cys at both ends (Ser–Ser linear), a peptide with Ser residues at the end cyclized head to tail (Ser–Ser cyclic), and a scrambled peptide in a pro-FSAP activation assay. (D) Hirudin plasma (1:12 dilution) was incubated with histones (25 μg/mL), NNKC9/41, or Ser–Ser linear control (each, 25 μM), the fluorogenic substrate turnover (Ac–Ala–Lys–Nle–Arg–AMC) was monitored in duplicate wells, and results from a single well are shown. In panels (B) and (C), results are shown as mean + range (duplicate wells). Results were replicated with five different batches of NNKC9/41 (panels (B) and (C)).
Pro-FSAP was isolated from human plasma as described before.[14] The content of the zymogen form varied from 50% to 90% due to autoactivation during the purification process. Histones, isolated from the calf thymus, were obtained from Sigma-Aldrich (Oslo, Norway). FSAP activity assays were performed as described previously.[51] In brief, microtiter wells were blocked with TBS (25 mM Tris–HCl, pH 7.5, and 150 mM NaCl) containing 3% (w/v) BSA for 1 h and washed with TBS-T. The standard assay consisted of TBS-T with 0.3% (w/v) BSA and CaCl2 (2 mM) 1 μg/mL (15 nM) plasma purified pro-FSAP and 250 μM chromogenic substrate S-2288 (D-Ile-L-Pro-L-Arg-p-nitroaniline dihydrochloride) (Haemochrome Diagnostica, Essen, Germany) and was followed at 37 °C at 405 nm in a microplate reader Synergy HI plate reader (BioTek Instruments, Winooski). In some experiments, a fluorescent substrate of FSAP[35] was used.

pro-urokinase = assay: Specificity towards pro-enzymes: pro-urokinase; type: biochemical; settings: pro-uPA 100 nM; peptide 0-50 μM; PNAPEP 1344 (Fig S7)
Protocol: Fig S7. […]
µM). Pro-uPA (100 nM) and uPA (20 nM) with PNAPEP 1344 (250 µM). Factor X (50 […]
Bend, IN, USA) except plasminogen and FSAP, which were isolated in house; and pro-uPA was from Grünenthal (Stolberg, Germany). All chromogenic substrates were from Hyphen Biomed (Neuville Sur Oise, France). Experiments were carried out in TBS with Tween-20 (0.1 % wt/ vol) BSA (0.3% wt/vol) and CaCl2 (2 mM). Absorbance at 405 nm was measured over time and the enzyme activity is depicted was measured in duplicates (mean + or -range) and similar results were obtained in 3

For CRGAMWMYKRC [NNKC9/41], the substrate turnover [1] was “no turnover of the substrate”, the “inhibitory effect of citrate after recalcification” value (pro-FSAP in human plasma; citrate plasma 1:12, recalcified, data not shown) was “reversed by recalcification” and the “effect in citrate plasma 1:12” value (pro-FSAP in human plasma; citrate plasma 1:12, 10 μM, 3 donors (Fig S5)) was “weak”. The “fluorogenic substrate turnover vs histones” value (pro-FSAP in human plasma; hirudin plasma 1:12, NNKC9/41 0–25 μM, histones 0–25 μg/mL, three donors (Fig 4A)) was “stronger effect than histones”, the “pro-FSAP activation in plasma” value (pro-FSAP in human plasma; hirudin plasma 1:12, peptides 25 μM, histones 25 μg/mL, Ac–Ala–Lys–Nle–Arg–AMC, duplicate wells (Fig 1D)) was “robust activation of pro-FSAP comparable to that with histones” and the “pro-FSAP activation in hirudin plasma” value (pro-FSAP in human plasma; hirudin plasma, dilutions 1:2 to 1:12, 10 μM, 3 donors (Fig S5)) was “activated pro-FSAP in plasma”. For the same sequence, the “lag time of pro-FSAP activation” value (pro-FSAP in human plasma; plasma, compared to histones (Fig 1D)) was over 15 min, the “effect on pro-FSAP activation” value ([2]; purified pro-FSAP 1.0 μg/mL, peptides 0–50 μM, histones 0–50 μg/mL, S-2288 (200 μM in legend b10, 250 μM in method b60), 37 °C, 405 nm, duplicate wells) was “able to robustly activate pro-FSAP” and the Maximal activation ([2]; purified pro-FSAP, S-2288, linear synthetic peptide stored under oxidative conditions, duplicate wells, five batches) was 2–2.5 fold. The “selectivity for pro-FSAP activation” value ([2]; versus plasminogen, pro-urokinase, factor XII, prothrombin, factor X and active enzymes) was “very high selectivity” and the effect on activity (pro-urokinase) was “did not influence the activity”.
